Experimental data as given in patent publication US7307044B2, “3-biphenyl-substituted-3-substituted-4-ketolactam and ketolactone and their utilization as pesticide” (Bayer CropScience AG, priority 2001, dated 2007).

Tests used:
Format in all cases: in vivo
[1] = tested on: green peach aphid (Myzus persicae); test: Myzus test; conditions: 500 ppm, cabbage leaves dipped
Experimental: Myzus Test Solvent: 7 parts by weight of dimethylformamide Emulsifier: 2 parts by weight of alkylaryl polyglycol ether To produce a suitable preparation of active compound, 1 part by weight of active compound is mixed with the stated amounts of solvent and emulsifier, and the concentrate is diluted with emulsifier-containing water to the desired concentration. Cabbage leaves (Brassica oleracea) which are heavily infested by the green peach aphid (Myzus persicae) are treated by being dipped into the preparation of active compound of the desired concentration. After the desired period of time, the kill in % is determined. 100% means that all aphids have been killed; 0% means that none of the aphids have been killed.

[2] = tested on: caterpillars of the armyworm (Spodoptera frugiperda); test: Spodoptera frugiperda test; conditions: 500 ppm, cabbage leaves dipped
Experimental: (§1) Spodoptera frugiperda Test Solvent: 7 parts by weight of dimethylformamide Emulsifier: 2 parts by weight of alkylaryl polyglycol ether To produce a suitable preparation of active compound, 1 part by weight of active compound is mixed with the stated amounts of solvent and emulsifier, and the concentrate is diluted with emulsifier-containing water to the desired concentration. Cabbage leaves (Brassica oleracea) are treated by being dipped into the preparation of active compound of the desired concentration and are populated with caterpillars of the armyworm (Spodoptera frugiperda) while the leaves are still moist. After the desired period of time, the kill in % is determined. 100% means that all caterpillars have been killed; 0% means that none of the caterpillars have been killed.

[3] = tested on: apple scab pathogen Venturia inaequalis; test: Venturia test (apple)/protective; conditions: protective, evaluation 10 days after inoculation; for % efficacy: 100 g/ha
Experimental: Venturia Test (Apple)/Protective Solvents: 24.5 parts by weight of acetone • 24.5 parts by weight of dimethylacetamide Emulsifier: 1.0 part by weight of alkylaryl polyglycol ether To produce a suitable preparation of active compound, 1 part by weight of active compound is mixed with the stated amounts of solvent and emulsifier, and the concentrate is diluted with water to the desired concentration. To test for protective activity, young plants are sprayed with the preparation of active compound at the stated application rate. After the spray coating has dried on, the plants are inoculated with an aqueous conidia suspension of the apple scab pathogen Venturia inaequalis and then remain in an incubation cabin at about 20° C. and 100% relative atmospheric humidity for 1 day. The plants are then placed in a greenhouse at about 21° C. and a relative atmospheric humidity of about 90%.

[4] = tested on: larvae of the mustard beetle (Phaedon cochleariae); test: Phaedon larvae test; conditions: 500 ppm, cabbage leaves dipped
Experimental: as §1, with “Phaedon Larvae Test” for “Spodoptera frugiperda Test”, “with larvae” for “with caterpillars”, “the mustard beetle (Phaedon cochleariae)” for “the armyworm (Spodoptera frugiperda)”, “all beetle larvae” for “all caterpillars”, “the beetle larvae” for “the caterpillars”

[5] = tested on: greenhouse red spider mite (Tetranychus urticae); test: Tetranychus test (OP-resistent/dip treatment); conditions: 100 ppm, bean plants dipped
Experimental: Tetranychus Test (OP-Resistent/Dip Treatment)
Solvent: 7 parts by weight of dimethylformamide
Emulsifier: 2 parts by weight of alkylaryl polyglycol ether
To produce a suitable preparation of active compound, 1 part by weight of active compound is mixed with the stated amounts of solvent and emulsifier, and the concentrate is diluted with emulsifier-containing water to the desired concentration.
Bean plants (Phaseolus vulgaris) which are heavily infested by all stages of the greenhouse red spider mite (Tetranychus urticae) are dipped into a preparation of active compound of the desired concentration.
After the desired period of time, the effect in % is determined. 100% means that all spider mites have been killed; 0% means that none of the spider mites have been killed.

[6] = tested on: Setaria; test: Post-emergence test (greenhouse); conditions: after three weeks
Experimental: (§2) Solvent: 5 parts by weight of acetone
(§3) Emulsifier: 1 part by weight of alkylaryl polyglycol ether
(§4) To produce a suitable preparation of active compound, 1 part by weight of active compound is mixed with the stated amount of solvent, the stated amount of emulsifier is added and the concentrate is diluted with water to the desired concentration.
(§5) Test plants of a height of 5-15 cm are sprayed with the preparation of active compound such that the particular amounts of active compound desired are applied per unit area. The concentration of the spray liquor is chosen such that the particular amounts of active compound desired are applied in 1000 l of water/ha.
(§6) After three weeks, the degree of damage to the plants is rated in % damage in comparison to the development of the untreated control.
(§7) The figures denote: • 0%=no effect (like untreated control) • 100%=total destruction

[7] = tested on: Echinochloa; test: Post-emergence test (greenhouse); conditions: after three weeks
Experimental: as §2, §3, §4, §5, §6, §7

[8] = tested on: Avena fatua; test: Post-emergence test (greenhouse); conditions: after three weeks
Experimental: as §2, §3, §4, §5, §6, §7

[9] = tested on: Alopecurus; test: Post-emergence test (greenhouse); conditions: after three weeks
Experimental: as §2, §3, §4, §5, §6, §7

[10] = tested on: Digitaria; test: Post-emergence test (greenhouse); conditions: 125 g ai/ha, after three weeks
Experimental: as §2, §3, §4, §5, §6, §7

[11] = tested on: Sugar beet; test: Post-emergence test (greenhouse); conditions: after three weeks
Experimental: as §2, §3, §4, §5, §6, §7

[12] = tested on: Plasmopara viticola; test: Plasmopara test (grapevine)/protective; conditions: protective, evaluation 6 days after inoculation; for % efficacy: 100 g/ha
Experimental: Plasmopara Test (Grapevine)/Protective Solvents: 24.5 parts by weight of acetone • 24.5 parts by weight of dimethylacetamide Emulsifier: 1.0 part by weight of alkylaryl polyglycol ether To produce a suitable preparation of active compound, 1 part by weight of active compound is mixed with the stated amounts of solvent and emulsifier, and the concentrate is diluted with water to the desired concentration. To test for protective activity, young plants are sprayed with the preparation of active compound at the stated application rate. After the spray coating has dried on, the plants are inoculated with an aqueous spore suspension of Plasmopara viticola and then remain in an incubation cabin at 20° C. and 100% relative atmospheric humidity for 1 day. The plants are then placed in a greenhouse at about 21° C. and about 90% atmospheric humidity for 4 days. The plants are then moistened and placed in an incubation cabin for 1 day.

[13] = tested on: caterpillars of the armyworm (Spodoptera exigua); test: Spodoptera exigua test; conditions: 500 ppm, cabbage leaves dipped
Experimental: as §1, with “exigua” for “frugiperda”, “exigua)” for “frugiperda)”

[14] = tested on: caterpillars of the diamondback moths (Plutella xylostella); test: Plutella test; conditions: 500 ppm, cabbage leaves dipped
Experimental: as §1, with “Plutella” for “Spodoptera frugiperda”, “diamondback moths (Plutella xylostella)” for “armyworm (Spodoptera frugiperda)”

[15] = tested on: Amaranthus; test: Post-emergence test (greenhouse); conditions: 250 g ai/ha, after three weeks
Experimental: as §2, §3, §4, §5, §6, §7

[16] = tested on: Sinapis; test: Post-emergence test (greenhouse); conditions: 250 g ai/ha, after three weeks
Experimental: as §2, §3, §4, §5, §6, §7

Structure (SMILES)	Kill rate in % after 6 d [1] [%]	Kill rate in % after 7 d [2] [%]	Kill rate in % after 7 d [4] [%]	Kill rate in % after 7 d [5] [%]	% efficacy [3] [%]	% efficacy [12] [%]	Kill rate in % after 7 d [13] [%]	degree of damage to the plants in % damage ([6]; 250 g ai/ha) [%]	degree of damage to the plants in % damage ([7]; 250 g ai/ha) [%]	degree of damage to the plants in % damage ([8]; 250 g ai/ha) [%]	degree of damage to the plants in % damage ([9]; 250 g ai/ha) [%]	Kill rate in % after 7 d [14] [%]	degree of damage to the plants in % damage [15] [%]	also measured
Cc1ccc(-c2ccc(Cl)cc2)cc1C1(Cl)C(=O)NC(C)(C)C1=O (stereo not shown) [Ex. I-1-1]	95	100	100	100	–	–	–	–	–	–	–	–	–	Emax at 100 g/ha ([3]; Venturia inaequalis, 240 h, read-out: % efficacy): 97%; degree of damage to the plants in % damage ([6]; 125 g ai/ha): 100%; degree of damage to the plants in % damage ([7]; 125 g ai/ha): 100%; degree of damage to the plants in % damage ([8]; 125 g ai/ha): 100%; degree of damage to the plants in % damage ([9]; 125 g ai/ha): 95%; degree of damage to the plants in % damage [10]: 90%; degree of damage to the plants in % damage ([11]; 125 g ai/ha): 0%; Emax at 100 g/ha ([12]; Plasmopara viticola, 144 h, read-out: % efficacy): 100%
CC1(C)NC(=O)C(Cl)(c2cc(-c3ccc(Cl)cc3)ccc2Cl)C1=O (stereo not shown) [Ex. I-1-2]	–	100	100	100	96	100	–	–	–	–	–	–	–	degree of damage to the plants in % damage ([6]; 125 g ai/ha): 90%; degree of damage to the plants in % damage ([7]; 125 g ai/ha): 100%; degree of damage to the plants in % damage ([8]; 125 g ai/ha): 95%; degree of damage to the plants in % damage ([9]; 125 g ai/ha): 90%; degree of damage to the plants in % damage [10]: 100%; degree of damage to the plants in % damage ([11]; 125 g ai/ha): 0%
COC1CCC2(CC1)NC(=O)C(Cl)(c1cc(-c3ccc(Cl)c(Cl)c3)ccc1C)C2=O (stereo not shown) [Ex. I-1-13]	100	100	100	95	–	94	100	90	100	90	95	100	–	–
CCOC1CCC2(CC1)NC(=O)C(Cl)(c1c(C)cc(-c3ccc(Cl)cc3)cc1CC)C2=O (stereo not shown) [Ex. I-1-10]	–	–	–	–	–	–	–	100	100	100	100	–	80	degree of damage to the plants in % damage [16]: 80%
Cc1ccc(-c2ccc(Cl)c(Cl)c2)cc1C1(Cl)C(=O)NC(C)(C)C1=O (stereo not shown) [Ex. I-1-15]	95	100	100	99	–	–	100	–	–	–	–	100	–	–
Cc1cc(C)c(C2(Cl)C(=O)NC3(CCOCC3)C2=O)cc1-c1ccc(Cl)cc1 (stereo not shown) [Ex. I-1-6]	98	100	100	99	99	94	–	95	100	100	70	–	70	–
Cc1cc(-c2ccc(Cl)cc2)cc(Cl)c1C1(Cl)C(=O)NC2(CCCOC2)C1=O (stereo not shown) [Ex. I-1-8]	–	–	–	98	–	–	–	100	100	95	95	–	70	degree of damage to the plants in % damage [16]: 80%
Cc1ccc(-c2ccc(Cl)cc2)cc1C1(Cl)C(=O)NC(C)(C(C)C)C1=O (stereo not shown) [Ex. I-1-11]	–	100	100	99	100	100	90	100	100	90	95	100	–	degree of damage to the plants in % damage ([11]; 250 g ai/ha): 0%
